Reference: patent US20240277732A1, “COMPOSITIONS AND METHODS FOR TREATING BRAIN-GUT DISORDERS” (Enterin, Inc., priority 2018, published 2024)

Assays:
[1] = tested on: individuals with mild constipation; settings: cited from earlier work
[2] = tested on: myenteric intrinsic primary afferent neurons (IPANs); test: Whole-cell patch clamp of IPANs, divided hemi-dissection preparation of FVB PD mouse; assay type: cell-based
Description: Whole-cell Patch Clamp: Whole-cell patch clamp was performed on a hemi-dissected myenteric plexus preparation as previously described.
IPAN excitability: PD model mice have reduced IPAN excitability. To determine the mechanism by which squalamine stimulated intestinal motility, electrophysiological studies on single neurons within the intact myenteric plexus of PD mice and corresponding control animals were conducted using published methods. In this series of studies a mouse α-synuclein knock-out model that expressed four copies of human A53T α-synuclein driven by the endogenous α-synuclein promoter (FVB PD), with the control (FVB control) represented by a strain engineered to express two copies of the normal human α-synuclein protein, was used.
IPANs from FVB PD animals were less excitable than IPANs recorded from FVB controls. The sample AP threshold (mean SD (N)) was 46% smaller for FVB control (32.2±20.0 (16)) compared to FVB PD (59.2±46.1 (20)). The number of action potentials produced by a current 2× the threshold intensity was 145% larger, 3.9±5.1 (16) for FVB control versus 1.6±0.6 (19) for FVB PD. The area under of the curve for the sAHP was 42% smaller −49.5±63.7 (16) versus −85.5±78.2 (19). RMP was depolarized by 10% for the FVB control, −56±10 (16) versus −62±6 (20).
Myenteric Primary Afferent Neuron Excitation: Squalamine excites myenteric primary afferent neurons. The effect of squalamine on the excitability of an isolated intestinal segment from the FVB PD mouse was explored using divided hemi-dissection preparations so that neurons are exposed for only half the area of an opened small intestinal segment. In this experiment, the inquiry was whether squalamine influenced the activity of the IPAN through direct interaction or indirectly, by stimulating release of epithelial mediators that influenced IPAN behaviour. Addition of squalamine (30 μM) to Krebs buffer in either the epithelial or the myenteric plexus compartments of the divided hemi-dissection preparation increased IPAN excitability. […] Addition of squalamine decreased the area under the curve of the sAHP by 77% from 86.8±88.2 to 20.3±25.3 mV·s, and depolarised RMP by 12% from −62±7 to −54±6 mV.

[3] = tested on: patients with PD and constipation; test: Phase 2 trial Stage 2: bowel function under daily oral dosing (stool diary, PAC-QOL, PAC-SYM); assay type: in vivo, human; settings: patients with baseline ≥1 CSBM/week
Description: Following successful screening, all subjects underwent a 14-day run-in period where the degree of constipation was assessed through a validated daily log (Zinsmeister et al. 2013) establishing baseline CSBMs/week. Subjects with an average of <3 CSBMs/week proceeded to dosing.
In Stage 2, 34 patients were evaluated.
The primary efficacy outcome variable was whether or not a subject was a “success” or “failure”. This is an endpoint based on subject diary entries for the “fixed dose” period prior to the endpoint assessment defined as average complete stool frequency increase by 1 or more over baseline, or 3 or more complete spontaneous stools/week. The subject was deemed a “success” if s/he met one or more of the criteria listed above, otherwise the subject was deemed a “failure”. The primary analysis was based on all subjects with a baseline assessment and an assessment at the end of the “fixed-dose” period and was a comparison of the proportion of successes with 0.10 (the null hypothesis corresponding to no treatment effect).

A53T and WT mice = test: In vivo fecal pellet output; set-up: species or system mouse
Description: In vivo fecal pellet output: Mice were subjected to the FPO test 1 day prior to the start of dosing with squalamine or vehicle (sterile water) (day 0). Mice were fasted for one hour and then given access to food one hour before FPO testing. On days 1-5 mice were fasted for one hour prior to oral gavage with vehicle or 20, 40, 80, or 120 mg/kg squalamine. Oral gavage occurred between 10:00 to 11:00 am daily. On day 5, the FPO test was performed 1 hour after the final dose was administered. Total number of stool pellets produced in the first 15 min and over a 60 min period was measured in each group. Stool water content was measured by comparing wet and dry weights of the stool.
In Vivo Fecal Pellet Output: Feeding of squalamine increased fecal pellet output, without substantially increasing water content, in vivo. To extend the ex vivo studies to the animal, both A53T and WT mice (N=10 mice/group/dose) were administered squalamine orally by gavage for 5 days (Day 1 to Day 5), at a range of doses from 0, 20, 40, 80 and 120 mg/kg. Fecal pellet output (FPO) within the first 15 minutes was measured following the gavage of vehicle control (on Day 0) or squalamine (on Day 5, at doses of 0, 20, 40, 80, and 120 mg/kg). There was no significant difference in the FPO in the first 15 min in WT and A53T mice between Days 0 and 5, in the groups receiving only vehicle (P>0.05). […] An increase in colonic motility should decrease the time of the stool within the colon and thereby increase the moisture content of the fecal pellets. […] Thus, squalamine appears to increase colonic transit in vivo.

[4] = tested on: colonic propagating contractile clusters (PCCs); test: Ex vivo colon motility with intraluminal squalamine, control mouse strains
Description: Ex vivo colon motility: For the ex vivo colonic motility experiments, the colon was excised and placed within an organ-bath perfusion chamber filled with warmed, oxygenated Krebs buffer or physiological saline (35° C., 95% 02, 5% CO2). The colon was flushed and cannulated at the oral and anal ends to a manifold and syringe to allow inflow of oxygenated Krebs buffer (or physiological saline) or Krebs and squalamine and to maintain intraluminal pressure. The height of the inflow tube at baseline measurements was parallel to the height of the colon in the organ bath (1.1 cm). Mechanical threshold defined an inflow pressure great enough to generate a contraction in under 30 sec (1.8 cm). Recordings in the first portion of the study were measured at a mechanical threshold causing a pressure differential of 2 hPa (cm H2O). Inflow was raised 2-3 hPa above baseline and outflow was raised a minimum of 0.2 hPa above inflow. Motor patterns were recorded using a Microsoft LifeCam 3000 web camera or a Logitech Quickcam Pro camera positioned 7-8 cm above the tissue. Videos were recorded during a 20-minute Krebs control and a 20-minute Krebs+squalamine period in which solutions were added to the inflow syringe.
Spatiotemporal Maps: Video recordings were used to construct spatiotemporal maps (STmaps) using edge detection software. Parameters of motor patterns including, velocity, amplitude, and frequency were measured using ImageJ and Matlab (Version 12) software.
Statistical Analysis: Effects of squalamine on motility and IPAN excitability in WT and PD model mice were assessed in paired experiments following Krebs control and subsequent squalamine exposure. Unpaired comparisons were performed for experiments comparing PD control and PD model strains. Percent difference was calculated by (treatment-control)/control. Data are presented as mean±SEM. Ex vivo statistical comparisons were performed using paired or unpaired, two-tailed t-tests or 1-way ANOVA using Graphpad Prism software (Version 7.0). In vivo studies were analysed using 1-way and 2-way ANOVA. Statistical significance was determined when p<0.05.

PD population = settings: short term placebo controlled trial; cited from earlier work
[5] = Intranasal pharmacokinetics in CSF; assay type: in vivo, Sprague Dawley rats; settings: 0.5 mg/kg IN, SD rats
From the text: (§1) The purpose of this example was to evaluate the in vivo distribution and function of aminosterols, such as Aminosterol 1436 and squalamine, following intranasal administration. This experiment relates to the amount of drug needed to obtain a therapeutic result, based on an IN route of administration. The results described below detail that aminosterols such as Aminosterol 1436 act at the level of the hypothalamus following in vivo administration, regardless of the route of administration.

[6] = Intranasal pharmacokinetics in plasma; assay type: in vivo, Sprague Dawley rats; settings: plasma, 0.5 mg/kg IN dose, SD rats
From the text: as §1

With “polyethylene glycol [polyethylene glycol (Magrogol)]” as the compound, how does the “stool frequency and consistency” value [1] read?
Its value is “shown to provide benefit”.

For `CC(C)[C@@H](CC[C@@H](C)[C@H]1CC[C@H]2[C@@H]3[C@H](O)C[C@H]4C[C@@H](NCCCNCCCCN)CC[C@]4(C)[C@H]3CC[C@]12C)OS(=O)(=O)O` [squalamine], which “decrease of AP threshold” value ([2]; added to the epithelium) is on record?
Its value is 44%.

What about the “decrease of sAHP AUC” value ([2]; added to the epithelium) of the same compound?
Its value is 77%.

What about the “increase of number of APs at 2× threshold current” value ([2]; added to the epithelium) of the same compound?
The value was 87%.

And the “number of APs at 2× threshold current” value ([2]; added to the epithelium, before 1.6±0.6)?
Its value is 3.1±0.7.

And the “decrease of AP threshold” value ([2]; added to the myenteric plexus)?
Its value is 37%.

What about the “decrease of sAHP AUC” value ([2]; added to the myenteric plexus) of the same compound?
The value was 87%.

And the “number of APs at 2× threshold current” value ([2]; added to the myenteric plexus, before 1.4±0.5)?
The value was 4.4±2.8.

And the “area under the curve of the sAHP” value ([2]; added to the myenteric plexus, before −71.9±60.1)?
The value was −9.6±15.1 mV·s.

And the mean prokinetic dose [3]?
Its mean prokinetic dose is 120 mg.

What about the stool water content (A53T and WT mice; A53T mice, 80 and 120 mg/kg (P=0.023 and 0.0004)) of the same compound?
Its stool water content is “significantly increased water content”.

And the “FPO in the first 15 min, Day 5 versus Day 0” value (A53T and WT mice; A53T mice, oral gavage 5 days, 20, 40 and 80 mg/kg (P<0.005, P<0.0001, P<0.01))?
The value was “significantly increased FPO”.

What about the fecal pellet output (A53T and WT mice; PD and wild type mice, 40 mg/kg/d for 5 days) of the same compound?
Its fecal pellet output is “increased their fecal pellet output”.

What about the stool water content (A53T and WT mice; WT mice, 80 mg/kg (P=0.025)) of the same compound?
Its stool water content is “significantly increased water content”.

And the “FPO in the first 15 min, Day 5 versus Day 0” value (A53T and WT mice; WT mice, oral gavage 5 days, 40 and 120 mg/kg (P<0.01 and P<0.05))?
Its value is “significantly increased FPO”.

And the “increase of PCC velocity” value ([4]; C57BL/6 (P<0.05))?
The value was 38%.

What about the “increase of PCC amplitude” value ([4]; C57BL/6 (P=0.27)) of the same compound?
Its value is 1%.

What about the “increase of PCC frequency” value ([4]; C57BL/6 (P=0.27)) of the same compound?
Its value is 51%.

What about the PCC frequency ([4]; C57BL/6, control 0.007±0.001) of the same compound?
The PCC frequency was 0.010±0.003 Hz.

What about the PCC amplitude ([4]; C57BL/6, control 0.66±0.06) of the same compound?
Its PCC amplitude is 0.70±0.07 cm.

And the PCC velocity ([4]; C57BL/6, control 1.31±0.10)?
Its PCC velocity is 1.80±0.20 mm/s.

And the “increase of PCC velocity” value ([4]; CD-1 (P<0.01))?
Its value is 81%.

What about the “increase of PCC frequency” value ([4]; CD-1 (P=0.06)) of the same compound?
Its value is 63%.

What about the “increase of PCC amplitude” value ([4]; CD-1 (P=0.56)) of the same compound?
Its value is 12%.

And the “increase of PCC velocity” value ([4]; Swiss Webster (P<0.0001))?
Its value is 45%.

And the “increase of PCC frequency” value ([4]; Swiss Webster (P<0.01))?
Its value is 35%.

And the “decrease of PCC amplitude” value ([4]; Swiss Webster (P=0.65))?
Its value is 3%.

For `CCCCC(F)(F)[C@@]1(O)CC[C@H]2[C@@H](CC(=O)[C@@H]2CCCCCCC(=O)O)O1` [Lubiprostone], which “share of treated in whom effective” value (PD population) is on record?
Its value is “about 50%”.

Which “presence in CSF” value [5] does the source give for `CC(C)[C@@H](CC[C@@H](C)[C@H]1CC[C@H]2[C@@H]3[C@H](O)C[C@H]4C[C@@H](NCCCNCCCCN)CC[C@]4(C)[C@H]3CC[C@]12C)OS(=O)(=O)O.C[C@H](O)C(=O)O.O` [squalamine lactate] here?
The value was “No squalamine lactate or Aminosterol 1436 was found in CSF”.

And the AUCInf [6]?
The AUCInf was 7863 ng·h/mL.

What about the “AUC_% Extrap_obs” value [6] of the same compound?
The value was 32.7%.

And the AUClast [6]?
Its AUClast is 5296 ng·h/mL.

And the AUClast/D [6]?
Its AUClast/D is 10600 kg·ng·h/mL/mg.

And the Cmax [6]?
Its Cmax is 1001 ng/mL.

And the MRTInf_obs [6]?
Its MRTInf_obs is 7.12 h.

And the T1/2 [6]?
Its T1/2 is 4.55 h.

What about the Tmax [6] of the same compound?
The Tmax was 1.00 h.
